Results published in patent publication US8044211B2 (Chroma Therapeutics Ltd., priority 2006, dated 2011).
Counter-ions that a name gives are not always drawn. Like-named read-outs stand apart in the source and are kept apart here.

Legend:
p38 MAP Kinase a = molecular target: T1, p38 MAP Kinase a (Homo sapiens, UniProt Q16539); assay: p38 MAP Kinase activity, radiometric filter-binding assay (Upstate); type: biochemical; details: IC50 range; ATP at or close to Km; read-out: Inhibitor activity versus p38 MAPKa
T1 construct: purchased Upstate (Dundee UK)
T1 sequence (Q16539 whole entry): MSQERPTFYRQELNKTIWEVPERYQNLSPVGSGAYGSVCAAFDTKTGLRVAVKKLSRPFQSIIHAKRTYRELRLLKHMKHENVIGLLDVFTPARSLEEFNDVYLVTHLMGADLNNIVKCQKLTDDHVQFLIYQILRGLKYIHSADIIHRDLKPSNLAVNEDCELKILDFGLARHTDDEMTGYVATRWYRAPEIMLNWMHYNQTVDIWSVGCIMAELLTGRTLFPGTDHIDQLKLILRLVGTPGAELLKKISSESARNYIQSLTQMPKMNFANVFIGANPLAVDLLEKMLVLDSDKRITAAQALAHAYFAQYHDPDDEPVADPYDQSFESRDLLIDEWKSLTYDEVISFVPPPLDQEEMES
Procedure: The ability of compounds to inhibit p38 MAP a Kinase activity was measured in an assay performed by Upstate (Dundee UK). In a final reaction volume of 25 μL, p38 MAP Kinase a (5-10 mU) is incubated with 25 mM Tris pH 7.5, 0.002 mMEGTA, 0.33 mg/mL myelin basic protein, 10 mM MgAcetate and [g-33P-ATP] (specific activity approx. 500 cpm/pmol, concentration as required). The reaction is initiated by the addition of the MgATP mix. After incubation for 40 minutes at room temperature, the reaction is stopped by the addition of 5 μL of a 3% phosphoric acid solution. 10 μL of the reaction is then spotted onto a P30 filtermat and washed three times for 5 minutes in 75 mM phosphoric acid and once in methanol prior to drying and scintillation counting.
Duplicate data points are generated from a ⅓ log dilution series of a stock solution in DMSO. Nine dilutions steps are made from a top concentration of 10 μM, and a ‘no compound’ blank is included. The standard radiometric filter-binding assay is performed at an ATP concentration at, or close to, the Km. Data from scintillation counts are collected and subjected to free-fit analysis by Prism software. From the curve generated, the concentration giving 50% inhibition is determined and reported.

THP-1 TNFα release = assay: LPS-stimulation of THP-1 cells, TNF-α by ELISA; type: cell-based; details: IC50 range, LPS 1 μg/ml, 6 hrs, read-out: Inhibitor activity versus THP-1 TNFα release
Procedure: THP-1 cells were plated in 100 μl at a density of 4×10^4 cells/well in V-bottomed 96 well tissue culture treated plates and incubated at 37° C. in 5% CO2 for 16 hrs. 2 hrs after the addition of the inhibitor in […], of tissue culture media, the cells were stimulated with LPS (E. coli strain 005:B5, Sigma) at a final concentration of 1 μg/ml and incubated at 37° C. in 5% CO2 for 6 hrs. TNF-α levels were measured from cell-free supernatants by sandwich ELISA (R&D Systems #QTA00B).

| Compound | IC50 (p38 MAP Kinase a) [nM] | IC50 (THP-1 TNFα release; Homo sapiens, THP-1) [nM] | IC50 (THP-1 TNFα release) [nM] |
| --- | --- | --- | --- |
| Nc1c(C(=O)c2ccc(F)cc2)ccc(=O)n1-c1c(F)cc(OC2CCC(N[C@@H](Cc3ccccc3)C(=O)OC3CCCC3)CC2)cc1F (stereo partly drawn) [Example 31, trifluoroacetate] | < 100 | < 100 |  |
| Nc1c(C(=O)c2ccc(F)cc2)ccc(=O)n1-c1c(F)cc(OC2CCC(N[C@H](C(=O)OC3CCCC3)c3ccccc3)CC2)cc1F (stereo partly drawn) [Example 32, Cyclopentyl(2S)-[(4-{4-[6-amino-5-(4-fluorobenzoyl)-2-oxopyridin-1(2H)-yl]-3,5-difluorophenoxy}cyclohexyl)amino](phenyl)acetate] | < 100 | < 100 |  |
| CC(C)C[C@H](NC1CCC(Oc2cc(F)c(-n3c(N)c(C(=O)c4ccc(F)cc4)ccc3=O)c(F)c2)CC1)C(=O)OC1CCCC1 (stereo partly drawn) [Example 33, Cyclopentyl(S)-2-(4-{4-[6-Amino-5-(4-fluorobenzoyl)-2-oxo-2H-pyridin-1-yl]-3,5-difluorophenoxy}cyclohexylamino)-4-methylpentanoate] | < 100 | < 100 |  |
| CC(C)(C)OC(=O)[C@H](Cc1ccccc1)NCCCOc1cc(F)c(-n2c(N)c(C(=O)c3ccc(F)cc3F)ccc2=O)c(F)c1 [Example 37, tert-Butyl(S)-2-(3-{4-[6-Amino-5-(2,4-difluorobenzoyl)-2-oxo-2H-pyridin-1-yl]-3,5-difluorophenoxy}-propylamino)-3-phenyl propionate] | < 100 | 100 to 1000 |  |
| Nc1c(C(=O)c2ccc(F)cc2F)ccc(=O)n1-c1c(F)cc(OCCCN[C@H](C(=O)OC2Cc3ccccc3C2)c2ccccc2)cc1F [Example 40, 2,3-Dihydro-1H-inden-2-yl (2S)-[(3-{4-[6-amino-5-(2,4-difluorobenzoyl)-2-oxopyridin-1(2H)-yl]-3,5-difluorophenoxy}propyl)amino](phenyl)acetate] | < 100 | < 100 |  |
| Nc1c(C(=O)c2ccc(F)cc2F)ccc(=O)n1-c1c(F)cc(OCCCN[C@H](C(=O)OC2CC3CCC2C3)c2ccccc2)cc1F (stereo partly drawn) [Example 43, Bicyclo[2.2.1]hept-2-yl(2S)-[(3-{4-[6-amino-5-(2,4-difluorobenzoyl)-2-oxopyridin-1(2H)-yl]-3,5-difluorophenoxy}propyl)amino](phenyl)acetate] | < 100 | < 100 |  |
| Nc1c(C(=O)c2ccc(F)cc2F)ccc(=O)n1-c1c(F)cc(OCCCN[C@@H](C(=O)OC2CC3CCC2C3)c2ccccc2)cc1F (stereo partly drawn) [Example 44, Bicyclo[2.2.1]hept-2-yl (2R)-[(3-{4-[6-amino-5-(2,4-difluorobenzoyl)-2-oxopyridin-1(2H)-yl]-3,5-difluorophenoxy}propyl)amino](phenyl)acetate] | 100 to 1000 | < 100 |  |
| CC(C)C[C@@H](NCCCOc1cc(F)c(-n2c(N)c(C(=O)c3ccc(F)cc3F)ccc2=O)c(F)c1)C(=O)OC(C)(C)C [Example 51, tert-Butyl N-(3-{4-[6-amino-5-(2,4-difluorobenzoyl)-2-oxopyridin-1(2H)-yl]-3,5-difluorophenoxy}propyl)-D-leucinate] | < 100 | < 100 |  |
| CC(C)C[C@H](NCCCCCOc1cc(F)c(-n2c(N)c(C(=O)c3ccc(F)cc3F)ccc2=O)c(F)c1)C(=O)OC(C)(C)C [Example 54, tert-Butyl N-(5-{4-[6-amino-5-(2,4-difluorobenzoyl)-2-oxopyridin-1(2H)-yl]-3,5-difluorophenoxy}pentyl)-L-leucinate] | < 100 | < 100 |  |
| Nc1c(C(=O)c2ccc(F)cc2)ccc(=O)n1-c1ccc(CCN[C@H](C(=O)OC2CCCC2)c2ccccc2)cc1 [Example 61, Cyclopentyl(2S)-{[2-(4-{6-amino-5-[(4-fluorophenyl)carbonyl]-2-oxopyridin-1(2H)-yl}phenyl)ethyl]amino}(phenyl)ethanoate] | 100 to 1000 | < 100 |  |
| CC(C)(C)OC(=O)[C@@H](NCCc1ccc(-n2c(N)c(C(=O)c3ccc(F)cc3)ccc2=O)cc1)c1ccccc1 [Example 62, tert-Butyl (2S)-{[2-(4-{6-amino-5-[(4-fluorophenyl)carbonyl]-2-oxopyridin-1(2H)-yl}phenyl)ethyl]amino}(phenyl)ethanoate] | 100 to 1000 | 100 to 1000 |  |
| O=C(c1ccc(F)cc1)c1ccc(=O)[nH]c1Nc1c(F)cc(CN[C@@H](Cc2ccccc2)C(=O)OC2CCCC2)cc1F [Example 71, Cyclopentyl(S)-2-[3,5-Difluoro-4-[3-(4-fluorobenzoyl)-6-oxo-1,6-dihydropyridin-2-ylamino]benzylamino]-3-phenylpropionate] | < 100 | > 1000 |  |
| Cyclopentyl(S)-2-{4-[6-Amino-5-(2,4-fluorobenzoyl)-2-oxo-2H-pyridin-1-yl]-3,5-difluorobenzylamino}-3-phenylpropionate [Example 10] | < 100 |  | 100 to 1000 |

Further lines, with some results ahead:

| IC50 (p38 MAP Kinase a) [nM] | IC50 (THP-1 TNFα release; Homo sapiens, THP-1) [nM] | Compound | IC50 (THP-1 TNFα release) [nM] |
| --- | --- | --- | --- |
| < 100 | 100 to 1000 | Nc1c(C(=O)c2ccc(F)cc2F)ccc(=O)n1-c1ccc(OCCCN[C@@H](Cc2ccccc2)C(=O)OC2CCCC2)cc1 [Example 29, Cyclopentyl(S)-2-(3-{4-[6-Amino-5-(2,4-difluorobenzoyl)-2-oxo-2H-pyridin-1-yl]phenoxy}propylamino)-3-phenyl propionate] |  |
| < 100 | < 100 | CC(C)C[C@H](NCCCOc1ccc(-n2c(N)c(C(=O)c3ccc(F)cc3F)ccc2=O)cc1)C(=O)OC1CCCC1 [Example 30, Cyclopentyl(S)-2-(3-{4-[6-Amino-5-(2,4-difluorobenzoyl)-2-oxo-2H-pyridin-1-yl]phenoxy}propylamino)-4-methyl pentanoate] |  |
| < 100 | 100 to 1000 | CC(C)C[C@H](NCCCOc1ccc(-n2c(N)c(C(=O)c3ccc(F)cc3F)ccc2=O)cc1)C(=O)OC(C)(C)C [Example 39, tert-Butyl(S)-2-(3-{4-[6-Amino-5-(2,4-difluorobenzoyl)-2-oxo-2H-pyridin-1-yl]phenoxy}propylamino)-4-methyl pentanoate] |  |
| < 100 | < 100 | CC(C)C[C@@H](NCCCOc1cc(F)c(-n2c(N)c(C(=O)c3ccc(F)cc3F)ccc2=O)c(F)c1)C(=O)OC1CCCC1 [Example 50, Cyclopentyl N-(3-{4-[6-amino-5-(2,4-difluorobenzoyl)-2-oxopyridin-1(2H)-yl]-3,5-difluorophenoxy}propyl)-D-leucinate] |  |
| 100 to 1000 | < 100 | CC(C)C[C@H](NCCCCCOc1cc(F)c(-n2c(N)c(C(=O)c3ccc(F)cc3)ccc2=O)c(F)c1)C(=O)OC1CCCC1 [Example 55, Cyclopentyl N-(5-{4-[6-amino-5-(4-fluorobenzoyl)-2-oxopyridin-1(2H)-yl]-3,5-difluorophenoxy}pentyl)-L-leucinate] |  |
| 100 to 1000 | > 1000 | CC(C)C[C@H](NC(=O)COc1ccc(-n2c(N)c(C(=O)c3ccc(F)cc3)ccc2=O)cc1)C(=O)OC1CCCC1 [Example 56, Cyclopentyl N-({4-[6-amino-5-(4-fluorobenzoyl)-2-oxopyridin-1(2H)-yl]phenoxy}acetyl)-L-leucinate] |  |
| 100 to 1000 | < 100 | CC(C)C[C@H](NCCc1ccc(-n2c(N)c(C(=O)c3ccc(F)cc3F)ccc2=O)cc1)C(=O)OC(C)(C)C [Example 60, tert-Butyl N-[2-(4-{6-amino-5-[(2,4-difluorophenyl)carbonyl]-2-oxopyridin-1(2H)-yl}phenyl)ethyl]-L-leucinate] |  |
| > 1000 | < 100 | Cc1ccc(C(=O)c2ccc(=O)n(-c3ccc(CCN[C@@H](CC(C)C)C(=O)OC4CCCC4)cc3)c2N)cc1 [Example 63, Cyclopentyl N-[2-(4-{6-amino-5-[(4-methylphenyl)carbonyl]-2-oxopyridin-1(2H)-yl}phenyl)ethyl]-L-leucinate] |  |
| > 1000 | 100 to 1000 | COc1ccc(C(=O)c2ccc(=O)n(-c3ccc(CCN[C@@H](CC(C)C)C(=O)OC4CCCC4)cc3)c2N)cc1 [Example 64, Cyclopentyl N-[2-(4-{6-amino-5-[(4-methoxyphenyl)carbonyl]-2-oxopyridin-1(2H)-yl}phenyl)ethyl]-L-leucinate] |  |
| 100 to 1000 | < 100 | CC(C)C[C@H](NCCc1ccc(-n2c(N)c(C(=O)c3ccc(Cl)cc3)ccc2=O)cc1)C(=O)OC1CCCC1 [Example 65, Cyclopentyl N-[2-(4-{6-amino-5-[(4-chlorophenyl)carbonyl]-2-oxopyridin-1(2H)-yl}phenyl)ethyl]-L-leucinate] |  |
| 100 to 1000 | 100 to 1000 | CC(C)C[C@H](NCCCOc1ccc(-n2c(N)c(C(=O)c3ccc(F)cc3)ccc2=O)c(F)c1)C(=O)OC1CCCC1 [Example 66, Cyclopentyl N-[3-(4-{6-amino-5-[(4-fluorophenyl)carbonyl]-2-oxopyridin-1(2H)-yl}-3-fluorophenoxy)propyl]-L-leucinate] |  |
